Reference: patent US20120121679A1, “VIRICIDAL AND MICROBICIDAL COMPOSITIONS AND USES THEREOF” (University of Georgia Research Foundation, Inc., priority 2009, published 2012)
Like-named read-outs stand apart in the source and are kept apart here.

What was measured:
MNV-1 = conditions: 1,000 ppm, cited from earlier work
Murine norovirus (MNV-1) = assay: Inactivation of MNV-1 by levulinic acid plus SDS in solution, plaque assay; conditions: 21° C., 1 min
Feline Calicivirus (FCV) = assay: Inactivation of FCV by levulinic acid plus SDS in solution, plaque assay; conditions: 21° C., 1 min
[1] = tested on: spores of Bacillus anthracis Sterne (34F2); format: cell-based
S. enteritidis = assay: Reduction of S. enteritidis in water treated with organic acids and SDS; format: cell-based, Salmonella enteritidis; conditions: for Salmonella reduction in water: within 30 minutes; for S. enteritidis counts: water, 21° C.
L. monocytogenes = format: cell-based, Listeria monocytogenes; conditions: 21° C.
S. typhimurium = assay: Produce wash in a 4-L tank: S. typhimurium counts on apples, celery, onions, cantaloupes
aerobic plate count = assay: Produce wash in a 4-L tank: aerobic plate counts (APC); conditions: time not given
yeasts and molds = assay: Produce wash in a 4-L tank: yeast and mold counts; conditions: time not given

## OCl [sodium hypochlorite solution, sodium hypochlorite]
MNV-1; food residuals present on the surfaces
  reduction in MNV-1 infectivity: minimal reductions in MNV-1 infectivity
MNV-1; viruses dried on stainless steel surfaces without food residuals
  reduction of viable MNV-1: > 4 log Most Probable Number (MPN)/ml

## CC(=O)CCC(=O)O [3.0% levulinic acid, levulinic acid]
Murine norovirus (MNV-1); listed as 3% Levulinic acid
  Log Reduction PFU/ml (standard deviation), MNV-1: −0.09 (±0.10) log PFU/ml
Feline Calicivirus (FCV); listed as 3% Levulinic acid
  Log Reduction PFU/ml (standard deviation), FCV: 0.43 (±0.23) log PFU/ml
[1]; Experiment A3, 0 min
  CFU/ml % recovery (as compared to control flask F): 108%
[1]; Experiment A3, 10 min
  CFU/ml % recovery (as compared to control flask F): 81%
[1]; Experiment A3, 45 min
  CFU/ml % recovery (as compared to control flask F): 55%
[1]; Experiment A3, 90 min
  CFU/ml % recovery (as compared to control flask F): 64%
[1]; Experiment A4 absent heat, RT, 0 min
  CFU/ml % recovery (as compared to control flask F): 89%
[1]; Experiment A4 absent heat, RT, 1 h
  CFU/ml % recovery (as compared to control flask F): 54%
[1]; Experiment A4 absent heat, RT, 2 h
  CFU/ml % recovery (as compared to control flask F): 27%
[1]; Experiment A4 absent heat, RT, 3 h
  CFU/ml % recovery (as compared to control flask F): 30%
[1]; Experiment A4 absent heat, RT, 4 h
  CFU/ml % recovery (as compared to control flask F): 15%
[1]; Experiment A4 with heat, 65° C., 0 min
  CFU/ml % recovery (as compared to control flask F): 70%
[1]; Experiment A4 with heat, 65° C., 1 h
  CFU/ml % recovery (as compared to control flask F): 78%
[1]; Experiment A4 with heat, 65° C., 2 h
  CFU/ml % recovery (as compared to control flask F): 45%
[1]; Experiment A4 with heat, 65° C., 3 h
  CFU/ml % recovery (as compared to control flask F): 33%
[1]; Experiment A4 with heat, 65° C., 4 h
  CFU/ml % recovery (as compared to control flask F): 46%
[1]; Experiment A5 absent heat, RT, 0 min
  CFU/ml % recovery (as compared to control flask F): 105%
[1]; Experiment A5 absent heat, RT, 1 h
  CFU/ml % recovery (as compared to control flask F): 80%
[1]; Experiment A5 absent heat, RT, 2 h
  CFU/ml % recovery (as compared to control flask F): 46%
[1]; Experiment A5 absent heat, RT, 3 h
  CFU/ml % recovery (as compared to control flask F): 67%
[1]; Experiment A5 absent heat, RT, 4 h
  CFU/ml % recovery (as compared to control flask F): 37%
[1]; Experiment A5 with heat, 65° C., 0 min
  CFU/ml % recovery (as compared to control flask F): 75%
[1]; Experiment A5 with heat, 65° C., 1 h
  CFU/ml % recovery (as compared to control flask F): 58%
[1]; Experiment A5 with heat, 65° C., 2 h
  CFU/ml % recovery (as compared to control flask F): 34%
[1]; Experiment A5 with heat, 65° C., 3 h
  CFU/ml % recovery (as compared to control flask F): 34%
[1]; Experiment A5 with heat, 65° C., 4 h
  CFU/ml % recovery (as compared to control flask F): 14%
S. enteritidis
  Salmonella reduction in water: 3.4 log CFU/ml
S. enteritidis; listed as 3% levulinic acid
  Salmonella reduction in water: about 3.4 log CFU/ml

## CCCCCCCCCCCCOS(=O)(=O)[O-].[Na+] [0.05% SDS, sodium dodecyl sulfate]
Murine norovirus (MNV-1); sulfate
  Log Reduction PFU/ml (standard deviation), MNV-1: −0.13 (±0.26) log PFU/ml
Feline Calicivirus (FCV); sulfate
  Log Reduction PFU/ml (standard deviation), FCV: −0.12 (±0.23) log PFU/ml
L. monocytogenes; 0 min
  L. monocytogenes counts: 6.6 ± 0.3 log CFU/ml
L. monocytogenes; 2 min
  L. monocytogenes counts: 6.4 ± 0.1 log CFU/ml
L. monocytogenes; 5 min
  L. monocytogenes counts: 6.0 ± 0.1 log CFU/ml
L. monocytogenes; 10 min
  L. monocytogenes counts: 5.0 ± 0.3 log CFU/ml
L. monocytogenes; 20 min
  L. monocytogenes counts: 3.8 ± 0.2 log CFU/ml
L. monocytogenes; 30 min
  L. monocytogenes counts: 3.3 ± 0.1 log CFU/ml
S. enteritidis; 0 min
  S. enteritidis counts: 7.1 log CFU/ml
S. enteritidis; 2 min
  S. enteritidis counts: 7.0 log CFU/ml
S. enteritidis; 5 min
  S. enteritidis counts: 7.2 log CFU/ml
S. enteritidis; 10 min
  S. enteritidis counts: 7.1 log CFU/ml
S. enteritidis; 20 min
  S. enteritidis counts: 7.2 log CFU/ml
S. enteritidis; 30 min
  S. enteritidis counts: 7.1 log CFU/ml
S. enteritidis
  Salmonella reduction in water: did not reduce Salmonella cell numbers

## acidified sodium chlorite [50 ppm acidified sodium chlorite]
S. typhimurium; 2 min (Example 42)
  average reduction of S. typhimurium on cantaloupes: 0.19 log CFU per cantaloupe
S. typhimurium; time not given
  reduction of S. typhimurium on onions: < 0.5 log CFU/onion
S. typhimurium; treatment time 2 min (Example 42)
  average S. typhimurium count on cantaloupes: 3.43 log CFU per cantaloupe
Aerobic plate count
  reduction of APC on onions: < 0.5 log CFU/onion
Yeasts and molds
  reduction of yeast and mold counts on onions: < 0.5 log CFU/onion
